“And” between values parts separate entries of the source, which are not always exact repeats. Equal entries are not always repeated.
Columns and labels:
[1] = biological target: T1, hrCYP2B6 (Homo sapiens, UniProt P20813); assay: CYP reaction phenotyping with hrCYP2B6 (% remaining); assay type: in vitro ADME; conditions: for % Remaining of TA: hrCYP2B6 20 pmol CYP/mL, 5 μM TA, PB and TUDCA co-incubated
T1 sequence (P20813 1-491): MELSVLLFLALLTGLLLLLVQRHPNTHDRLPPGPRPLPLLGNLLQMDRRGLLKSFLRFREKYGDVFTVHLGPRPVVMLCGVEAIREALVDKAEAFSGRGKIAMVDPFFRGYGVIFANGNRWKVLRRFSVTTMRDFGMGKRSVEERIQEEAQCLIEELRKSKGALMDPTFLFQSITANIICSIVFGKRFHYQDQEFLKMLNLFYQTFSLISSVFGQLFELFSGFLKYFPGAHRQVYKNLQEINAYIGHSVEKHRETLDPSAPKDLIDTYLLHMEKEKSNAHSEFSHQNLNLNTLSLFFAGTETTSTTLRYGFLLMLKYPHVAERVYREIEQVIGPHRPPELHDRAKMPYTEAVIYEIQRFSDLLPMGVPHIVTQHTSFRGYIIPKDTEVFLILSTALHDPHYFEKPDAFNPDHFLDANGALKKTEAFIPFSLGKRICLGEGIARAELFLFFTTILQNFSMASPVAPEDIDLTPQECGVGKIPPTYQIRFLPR

[2] = biological target: T2, P-gp (Homo sapiens, UniProt P08183); assay: Inhibitor of P-gp, 3H-digoxin efflux in Caco-2 cells; conditions: for potency estimated from few doses: read-out: Estimated IC50, P-gp
[3] = Solubility assessment in HBSSg_7.4 and HBSSg_8.5; conditions: for Measured Concentration / Percent of the Nominal Concentration: replicates 1-3
[4] = biological target: hrCYP3A4 (Homo sapiens, UniProt P08684); assay: CYP reaction phenotyping with hrCYP3A4 (% remaining); assay type: in vitro ADME; conditions: for % Remaining of TA: hrCYP3A4 20 pmol CYP/mL, 5 μM TA, PB and TUDCA co-incubated
[5] = biological target: hrCYP2C19 (Homo sapiens, UniProt P33261); assay: CYP reaction phenotyping with hrCYP2C19 (% remaining); assay type: in vitro ADME; conditions: for % Remaining of TA: hrCYP2C19 20 pmol CYP/mL, 5 μM TA, PB and TUDCA co-incubated
[6] = test system: P-gp and BCRP; assay: P-gp and BCRP substrate assessment in C2BBe1 monolayers
Experimental: The P-gp and BCRP substrate assessment was conducted in C2BBe1 cell monolayers. […] LY was co-dosed with each dosing solution at a nominal concentration of 200 μM.
The cell culture medium was aspirated, and the cell monolayers were rinsed once with HBSSg_7.4. […] For receiver samples, aliquots (300 μL) were taken at pre-selected time points. […] For donor samples, aliquots (50 μL) were taken at pre-selected time points without replacement.

[7] = biological target: T3, OAT1 (Homo sapiens, UniProt Q4U2R8); assay: in vitro
T3 sequence (Q4U2R8 1-563): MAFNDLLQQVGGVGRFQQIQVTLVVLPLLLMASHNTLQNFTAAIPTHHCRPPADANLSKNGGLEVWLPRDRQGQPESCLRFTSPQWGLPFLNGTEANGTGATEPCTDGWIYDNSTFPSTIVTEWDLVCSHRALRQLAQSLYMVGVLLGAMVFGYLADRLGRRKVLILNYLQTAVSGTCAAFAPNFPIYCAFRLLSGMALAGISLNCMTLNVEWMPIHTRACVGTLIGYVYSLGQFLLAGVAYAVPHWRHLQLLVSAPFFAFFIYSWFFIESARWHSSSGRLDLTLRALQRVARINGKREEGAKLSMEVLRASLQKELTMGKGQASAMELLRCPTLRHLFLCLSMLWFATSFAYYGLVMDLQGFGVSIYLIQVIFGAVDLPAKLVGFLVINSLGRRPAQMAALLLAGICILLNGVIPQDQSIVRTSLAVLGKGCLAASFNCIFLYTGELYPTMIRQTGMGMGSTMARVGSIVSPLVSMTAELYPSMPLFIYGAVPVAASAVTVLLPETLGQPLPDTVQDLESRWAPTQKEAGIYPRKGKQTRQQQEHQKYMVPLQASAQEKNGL

[8] = biological target: T4, OAT3 (Homo sapiens, UniProt Q8TCC7); assay: in vitro
T4 sequence (Q8TCC7 1-542): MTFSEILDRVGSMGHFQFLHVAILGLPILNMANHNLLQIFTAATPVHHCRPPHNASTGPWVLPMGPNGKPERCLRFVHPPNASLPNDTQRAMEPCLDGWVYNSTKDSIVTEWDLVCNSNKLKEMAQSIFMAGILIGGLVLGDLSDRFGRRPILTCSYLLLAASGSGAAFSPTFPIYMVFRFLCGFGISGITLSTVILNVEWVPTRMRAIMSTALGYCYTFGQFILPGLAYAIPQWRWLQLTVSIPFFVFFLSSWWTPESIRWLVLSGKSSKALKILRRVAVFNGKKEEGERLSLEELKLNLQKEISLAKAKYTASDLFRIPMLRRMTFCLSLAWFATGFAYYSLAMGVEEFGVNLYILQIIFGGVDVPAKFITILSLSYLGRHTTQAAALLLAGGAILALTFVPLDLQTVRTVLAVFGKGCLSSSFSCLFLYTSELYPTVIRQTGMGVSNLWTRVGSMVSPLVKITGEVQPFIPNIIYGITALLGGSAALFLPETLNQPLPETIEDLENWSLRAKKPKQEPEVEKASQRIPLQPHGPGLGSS

[9] = test system: CYP1A2 mRNA; assay: in vitro; conditions: human
[10] = biological target: T2, P-gp; assay: in vitro
[11] = biological target: OATP1B1 (Homo sapiens, UniProt Q9Y6L6); assay: in vitro
[12] = Caco-2, two concentrations per test article
[13] = Caco-2, estimated from two doses
[14] = estimated from two concentrations, Caco-2 cells
[15] = two concentrations per test article, Caco-2 cells
[16] = HBSSg_7.4, target 8005 μM TUDCA, 64447 μM PB
[17] = HBSSg_8.5, target 810 μM TUDCA, 73927 μM PB
[18] = 1.62 μM TUDCA (Solution 3), C2BBe1 cells, average
[19] = 1.62 μM TUDCA (Solution 3), C2BBe1 cells, single replicates
[20] = 16.2 μM TUDCA (Solution 2), C2BBe1 cells, average
[21] = 16.2 μM TUDCA (Solution 2), C2BBe1 cells, single replicates
[22] = […] TUDCA (Solution 1), C2BBe1 cells, average
[23] = […] TUDCA (Solution 4), C2BBe1 cells, average

T2 sequence (P08183 whole entry): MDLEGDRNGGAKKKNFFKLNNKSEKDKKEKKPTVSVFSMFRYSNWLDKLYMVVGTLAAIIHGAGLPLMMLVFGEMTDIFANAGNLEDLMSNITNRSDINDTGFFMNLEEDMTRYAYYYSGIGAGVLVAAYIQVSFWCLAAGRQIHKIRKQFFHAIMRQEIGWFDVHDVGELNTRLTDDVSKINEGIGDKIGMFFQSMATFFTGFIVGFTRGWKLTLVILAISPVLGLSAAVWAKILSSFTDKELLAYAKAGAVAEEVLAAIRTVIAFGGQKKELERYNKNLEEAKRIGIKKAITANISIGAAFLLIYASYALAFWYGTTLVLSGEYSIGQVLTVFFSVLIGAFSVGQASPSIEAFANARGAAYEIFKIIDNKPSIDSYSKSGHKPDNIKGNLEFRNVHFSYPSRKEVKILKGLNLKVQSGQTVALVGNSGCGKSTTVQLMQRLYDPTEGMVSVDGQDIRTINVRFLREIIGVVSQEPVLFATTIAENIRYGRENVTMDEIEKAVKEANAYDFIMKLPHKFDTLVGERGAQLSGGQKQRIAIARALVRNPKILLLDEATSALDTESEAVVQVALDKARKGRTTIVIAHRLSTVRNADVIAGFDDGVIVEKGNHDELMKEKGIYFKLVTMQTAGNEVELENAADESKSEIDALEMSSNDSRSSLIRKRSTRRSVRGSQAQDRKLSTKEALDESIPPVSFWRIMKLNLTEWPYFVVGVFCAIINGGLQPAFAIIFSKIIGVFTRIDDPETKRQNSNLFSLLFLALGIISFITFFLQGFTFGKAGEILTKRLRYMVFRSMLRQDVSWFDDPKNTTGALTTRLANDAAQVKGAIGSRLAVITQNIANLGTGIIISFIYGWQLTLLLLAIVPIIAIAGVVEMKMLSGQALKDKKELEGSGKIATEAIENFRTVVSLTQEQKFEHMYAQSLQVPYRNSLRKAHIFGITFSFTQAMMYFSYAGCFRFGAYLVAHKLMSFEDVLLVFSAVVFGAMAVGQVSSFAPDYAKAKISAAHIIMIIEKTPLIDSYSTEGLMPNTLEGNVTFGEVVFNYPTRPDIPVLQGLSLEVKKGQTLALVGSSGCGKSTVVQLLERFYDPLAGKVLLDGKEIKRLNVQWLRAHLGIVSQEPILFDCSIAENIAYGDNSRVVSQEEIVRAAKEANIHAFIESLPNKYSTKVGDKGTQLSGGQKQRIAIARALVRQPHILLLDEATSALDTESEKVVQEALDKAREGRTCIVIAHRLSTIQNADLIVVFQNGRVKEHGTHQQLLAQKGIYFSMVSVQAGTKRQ
hrCYP2C19, sequence (P33261 whole entry): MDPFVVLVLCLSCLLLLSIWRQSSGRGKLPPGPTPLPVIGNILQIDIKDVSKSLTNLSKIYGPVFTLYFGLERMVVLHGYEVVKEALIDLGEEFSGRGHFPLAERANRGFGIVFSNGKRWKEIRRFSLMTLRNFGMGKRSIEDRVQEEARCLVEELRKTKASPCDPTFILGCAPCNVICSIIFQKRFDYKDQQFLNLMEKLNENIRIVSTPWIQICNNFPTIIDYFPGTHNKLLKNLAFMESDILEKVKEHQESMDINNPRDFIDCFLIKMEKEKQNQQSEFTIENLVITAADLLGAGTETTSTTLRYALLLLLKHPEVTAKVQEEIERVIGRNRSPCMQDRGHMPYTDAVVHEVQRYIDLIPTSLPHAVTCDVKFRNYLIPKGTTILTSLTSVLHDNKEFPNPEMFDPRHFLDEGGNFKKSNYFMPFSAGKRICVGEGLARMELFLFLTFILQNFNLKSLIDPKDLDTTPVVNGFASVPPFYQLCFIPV
hrCYP3A4, sequence (P08684 whole entry): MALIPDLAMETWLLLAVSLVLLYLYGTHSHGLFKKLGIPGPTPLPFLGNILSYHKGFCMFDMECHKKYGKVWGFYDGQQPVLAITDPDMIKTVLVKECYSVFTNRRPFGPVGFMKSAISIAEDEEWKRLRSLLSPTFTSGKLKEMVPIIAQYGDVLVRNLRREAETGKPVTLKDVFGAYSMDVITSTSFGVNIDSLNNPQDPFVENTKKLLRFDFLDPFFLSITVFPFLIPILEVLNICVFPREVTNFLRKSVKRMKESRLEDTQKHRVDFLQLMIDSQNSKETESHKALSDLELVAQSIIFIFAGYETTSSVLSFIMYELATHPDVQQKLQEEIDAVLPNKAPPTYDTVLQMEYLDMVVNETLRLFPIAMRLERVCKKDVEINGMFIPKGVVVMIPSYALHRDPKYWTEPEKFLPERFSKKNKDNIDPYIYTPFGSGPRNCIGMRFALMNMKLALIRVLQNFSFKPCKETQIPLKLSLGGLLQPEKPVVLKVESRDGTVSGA
OATP1B1, sequence (Q9Y6L6 whole entry): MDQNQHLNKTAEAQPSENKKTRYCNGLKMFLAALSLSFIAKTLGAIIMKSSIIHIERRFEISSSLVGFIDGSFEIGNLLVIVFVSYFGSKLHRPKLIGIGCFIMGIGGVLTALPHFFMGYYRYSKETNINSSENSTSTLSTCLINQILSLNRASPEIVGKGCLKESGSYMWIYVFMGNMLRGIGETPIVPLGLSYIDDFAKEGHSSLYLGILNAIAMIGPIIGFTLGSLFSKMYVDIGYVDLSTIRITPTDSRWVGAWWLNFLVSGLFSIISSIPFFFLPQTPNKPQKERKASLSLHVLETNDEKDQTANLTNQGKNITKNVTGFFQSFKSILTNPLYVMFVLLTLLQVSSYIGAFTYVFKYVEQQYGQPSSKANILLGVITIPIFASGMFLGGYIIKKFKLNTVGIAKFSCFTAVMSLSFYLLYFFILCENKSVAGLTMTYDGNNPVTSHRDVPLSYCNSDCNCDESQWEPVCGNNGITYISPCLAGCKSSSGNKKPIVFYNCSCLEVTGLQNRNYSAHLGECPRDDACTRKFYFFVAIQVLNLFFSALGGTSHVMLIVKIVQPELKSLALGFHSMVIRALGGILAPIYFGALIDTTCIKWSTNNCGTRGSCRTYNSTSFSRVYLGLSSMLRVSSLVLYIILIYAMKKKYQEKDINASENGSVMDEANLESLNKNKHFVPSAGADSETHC

In the case of tauroursodeoxycholic acid [TUDCA], the “% Remaining of TA” value ([1]; 0 min) is reported as 100%, the “% Remaining of TA” value ([1]; 5 min) is reported as 97.6% and the “% Remaining of TA” value ([1]; 10 min) is reported as 97.0%. For the same compound, the “% Remaining of TA” value ([1]; 20 min) was 99.3%, the “% Remaining of TA” value ([1]; 30 min) was 99.7% and the “% Remaining of TA” value ([1]; 60 min) was 101%. The “Inhibitor of P-gp” value [2, 12] was “identified as an inhibitor”, the “Remaining P-gp activity, % of the control” value (shortened to “Remaining P-gp activity, %”) ([2]; higher test concentration) was 57.3% and the “Remaining P-gp activity, %” value ([2]; lower test concentration) was 78.8%. For the same compound, the potency estimated from few doses [2, 13] was over 50 µM, the potency estimated from few doses [2, 14] was over 50 µM and the “Inhibitor of P-gp” value [2, 15] was “Yes”. The “Soluble up to target concentration” value ([3]; HBSSg_7.4, 37° C. overnight) was at least 8005 µM, the “Measured Concentration” value [3, 16] was 6710 µM and 6950 µM and 6770 µM and the “Percent of the Nominal Concentration” value [3, 16] was 83.8% and 86.8% and 84.6%. For the same compound, the “Soluble up to target concentration” value ([3]; HBSSg_8.5, 37° C. overnight) was at least 810 µM, the “Measured Concentration” value [3, 17] was 719 μM and 704 μM (2×) and the “Percent of the Nominal Concentration” value [3, 17] was 88.8% and 86.9% (2×). The “% Remaining of TA” value ([4]; 0 min) was 100%, the “% Remaining of TA” value ([4]; 5 min) was 97.1% and the “% Remaining of TA” value ([4]; 10 min) was 92.1%. For the same compound, the “% Remaining of TA” value ([4]; 20 min) was 91.4%, the “% Remaining of TA” value ([4]; 30 min) was 90.9% and the “% Remaining of TA” value ([4]; 60 min) was 91.1%. For the same compound, the “% Remaining of TA” value ([5]; 0 min) was 100%, the “% Remaining of TA” value ([5]; 5 min) was 96.1% and the “% Remaining of TA” value ([5]; 10 min) was 98.7%. For the same compound, the “% Remaining of TA” value ([5]; 20 min) was 94.8%, the “% Remaining of TA” value ([5]; 30 min) was 95.1% and the “Papp AP-to-BL” value [6, 18] was 8.32 10^−6 cm/s. For the same compound, the “Papp BL-to-AP” value [6, 18] was 1.91 10^−6 cm/s, the “Papp AP-to-BL” value [6, 19] was 9.59 10^−6 cm/s and 7.25 10^−6 cm/s and 8.12 10^−6 cm/s and the “Papp BL-to-AP” value [6, 19] was 1.75 10^−6 cm/s and 1.84 10^−6 cm/s. For the same compound, the “Papp AP-to-BL” value [6, 20] was 2.00 10^−6 cm/s, the “Papp BL-to-AP” value [6, 20] was 0.610 10^−6 cm/s and the “Papp AP-to-BL” value [6, 21] was 1.19 10^−6 cm/s and 2.71 10^−6 cm/s and 2.08 10^−6 cm/s. For the same compound, the “Papp BL-to-AP” value [6, 21] was 0.553 10^−6 cm/s and 0.714 10^−6 cm/s and 0.561 10^−6 cm/s, the “Papp BL-to-AP” value ([6]; Caco-2) was 2.15 10^−6 cm/s and the “Papp AP-to-BL” value [6, 22] was 5.92 10^−6 cm/s. The “Papp BL-to-AP” value [6, 22] was 3.00 10^−6 cm/s, the “Papp AP-to-BL” value [6, 23] was 7.11 10^−6 cm/s and the “Papp BL-to-AP” value [6, 23] was 2.14 10^−6 cm/s.

For `O=C(O)CCCc1ccccc1` [PB, sodium phenylbutyrate], the “% remaining after 60 minutes” value ([1]; human, 1 h, 5 µM, pH 7.4) was “greater than 90%”, the “Inhibitor of P-gp” value [2, 12] was “not an inhibitor” and the “Remaining P-gp activity, %” value ([2]; higher test concentration) was 106%. The “Remaining P-gp activity, %” value ([2]; lower test concentration) was 93.5%, the “Inhibitor of P-gp” value [2, 15] was “No” and the potency estimated from few doses [7] was under 25 µM. For the same compound, the “Measured Concentration” value [3, 16] was 52000 µM and 59300 µM and 52800 µM, the “Percent of the Nominal Concentration” value [3, 16] was 80.7% and 92.0% and 81.9% and the “Measured Concentration” value [3, 17] was 62200 µM and 53200 µM and 61100 µM. For the same compound, the “Percent of the Nominal Concentration” value [3, 17] was 84.1% and 72.0% and 82.6%, the “% remaining after 60 minutes” value ([4]; human, 1 h, 5 µM, pH 7.4) was “greater than 90%” and the “% remaining after 60 minutes” value ([5]; human, 1 h, 5 µM, pH 7.4) was “greater than 90%”. The “P-gp or BCRP substrate” value ([6]; Caco-2) was “neither TUDCA nor PB is P-gp or BCRP substrate” and the potency estimated from few doses [8] was under 25 µM.

With `O=C(O)Cc1ccccc1` [Phenylacetic acid, phenylacetic acid] the EC50 at 72 h [9] was 8.18 µM, the potency estimated from few doses [10] was over 7500 µM and the potency estimated from few doses [11] was over 7500 µM. The “Inhibitor of P-gp” value [2, 12] was “weak inhibitor”, the “Remaining P-gp activity, %” value ([2]; higher test concentration) was 75.6% and the “Remaining P-gp activity, %” value ([2]; lower test concentration) was 85.9%. The potency estimated from few doses [2, 14] was over 7500 µM, the “Inhibitor of P-gp” value [2, 15] was “Yes” and the potency estimated from few doses [7] was under 750 µM.

In the case of ursodeoxycholic acid, the “Inhibitor of P-gp” value [2, 12] is reported as “identified as an inhibitor”, the “Remaining P-gp activity, %” value ([2]; higher test concentration) is reported as 13.0% and the “Remaining P-gp activity, %” value ([2]; lower test concentration) is reported as 348%. The potency estimated from few doses [2, 13] was under 500 µM, the potency estimated from few doses [2, 14] was under 500 µM and the “Inhibitor of P-gp” value [2, 15] was “Yes^a”.

Compound `C[C@H](CCC(=O)NCC(=O)O)[C@H]1CC[C@H]2[C@@H]3[C@@H](O)C[C@@H]4C[C@H](O)CC[C@]4(C)[C@H]3CC[C@]12C` [Glycoursodeoxycholic acid, glycoursodeoxycholic acid] has an EC50 at 72 h ([9]; hepatocyte cultures) of 1.88 µM, a fold induction at 72 h ([9]; hepatocyte cultures) of 12.2 and a potency estimated from few doses ([10]; Caco-2 cells, probe 3H-digoxin) of under 10 µM. The potency estimated from few doses [11] was about 10 µM, the “Inhibitor of P-gp” value [2, 12] was “identified as an inhibitor” and the potency estimated from few doses [2, 14] was under 10 µM. The “Inhibitor of P-gp” value [2, 15] was “Yes” and the potency estimated from few doses [8] was under 100 µM.
